According to patent US11497706B2, “Antiperspirant and deodorant compositions” (The Procter & Gamble Company, priority 2017, dated 2022):
In brackets after ≈: the same amount, converted by molar mass. Counter-ions that a name gives are not always drawn. Like-named read-outs stand apart in the source and are kept apart here. Blank lines part the entries; values can stand above or below the compound they belong to.

Columns and labels:
C. mucofaciens = assay: Tier 1 Anaerobic MIC Assay; format: cell-based, Corynebacterium mucofaciens (clinical isolate); conditions: for MIC: Corynebacterium, read-out: microbial inhibition concentration (MIC)
Text: (§1) 1. Tier 1 Anaerobic MIC Assay
(§2) The data in Table 2 above was generated with the following test method. The purpose of this assay is to determine if a compound or formulation has an antimicrobial effect in vitro.
(§3) It is understood that when not specifically noted in this procedure: • a) All materials, reagents and equipment required for this procedure are of appropriate design and condition of cleanliness and/or sterility as determined by their intended use. • b) The operator has been trained in aseptic technique and has been qualified to perform the procedure and accurately interpret the results. • c) All media required for this procedure was manufactured by a reputable commercial source egg. Difco, Merck etc. and has been stored and prepared as per manufacturer's instructions. • d) All routine laboratory controls, including but not limited to, media function and growth promotion tests, verification of sterility and use of positive and negative controls are being conducted.
(§4) Procedure: (All Procedures Performed in Anaerobic Chamber Except where Noted)
(§5) Incubator at 37° C.; 20-200 ul channel pipette; 5-50 ul channel pipette; 1250 ul 8 channel Thermo Scientific Matrix pipette; 96 well plate shaker (located in incubator); Beckman Coulter deep well cap mat #267005; Beckman Coulter deep 96 well plates #267007; Falcon 96 well tissue culture plates #353072; Vortexer; Culture tubes/caps Disposable sterile gloves; Sterile petri dishes; Standard microbiological lab equipment (sterile pipettes, syringes, tips, loops, etc.); Glass bottles/flasks for media; Autoclave; Parafilm; Spectrophotometer.
(§6) • 0.9% or 0.85% saline solution • BHI agar supplemented with 1% Tween 80 • BHI media supplemented with 1% Tween 80 3. Microbial Strains
Corynebacterium mucofaciens (clinical isolate)
(§7) Prior to testing streak organisms for isolation on BHI with 1% Tween 80 plates, wrap with parafilm and place in 37° C. incubator. When isolated colonies appear remove one representative colony from each plate and place each in 5 ml of BHI with 1% Tween 80 media. Incubate at 37° C. with shaking overnight. Inoculate 20 ml BHI with 1% Tween 80 (per 96 deep well plate to be tested) with 20 ul of the overnight culture (1-1000 dilution).
(§8) Compounds/formulations to be tested are diluted across a 96 deep well plate as shown below (for a 1% stock solution). 800 ul of 0.85% saline is added to wells A1 and B1 (as these will be the negative and positive control respectively). 800 ul each 1% stock solution+positive control are added to wells C1 through H1. 400 ul 0.85% saline are added to all other wells. 400 ul is then removed from #1 well added to the #2 well and mixed. This is then continued across the plate resulting in a 50% dilution between wells across the plate (this can be easily accomplished with an automatic 8 channel Matrix pipette set to withdraw, dispense and mix).
(§9) In row A of a 96 deep well plate pipette 180 ul of sterile BHI with 1% Tween 80 as a negative growth control. All other wells receive 180 ul of inoculum. From the master plate introduce 20 ul to the corresponding row in the test plate using an 8-channel pipette. Loaded plates are placed on a plate shaker in the 37° C. incubator and incubated overnight. The next day read the O.D. 600 on a plate reader. The MIC is the last well from the right that has no bacterial growth.

S. epidermidis = assay: Tier 1 Anaerobic MIC Assay; format: cell-based, Staphylococcus epidermidis (clinical isolate); conditions: for MIC: Staphylococcus epidermidis, read-out: microbial inhibition concentration (MIC)
Text: as §1, §2, §3, §4, §5, §6
Staphylococcus epidermidis (clinical isolate)
as §7, §8, §9

[1] = test system: two key underarm bacteria strains; assay: Raw material microbial inhibition, summary in words; format: cell-based; conditions: C. mucofaciens and S. epidermidis
Text: The data in Table 2 above was generated with the following test method.

[2] = anaerobic, 37° C. overnight, O.D. 600

MIC (C. mucofaciens; [2]): 1600 µg/mL
MIC (S. epidermidis; [2]): 1600 µg/mL
Structure (SMILES): CCOC(=O)CC(O)(CC(=O)OCC)C(=O)OCC [triethyl citrate]
performance against the bacteria as raw materials [1]: performing well

MIC (C. mucofaciens; [2]): > 49000 µg/mL
MIC (S. epidermidis; [2]): > 49000 µg/mL
Structure (SMILES): C=CC(C)(O)CCC=C(C)CCC=C(C)C (stereo not shown) [Nerolidol]

MIC (C. mucofaciens; [2]): < 5 µg/mL
MIC (S. epidermidis; [2]): 10 µg/mL
Structure (SMILES): Cc1cc(CC(C)CC(C)(C)C)n(O)c(=O)c1.NCCO (stereo not shown) [piroctone olamine, 1-Hydroxy-4-methyl-6-(2,4,4-trimethylpentyl)-2-pyridone monoethanolamine salt, reference compound]
performance against the bacteria as raw materials [1]: perform particularly well

MIC (C. mucofaciens; [2]): > 49000 µg/mL
MIC (S. epidermidis; [2]): > 49000 µg/mL
Structure (SMILES): C/C(=C\CO)CCC[C@H](C)CCC[C@H](C)CCCC(C)C [Phytol]

MIC (C. mucofaciens; [2]): 1500 µg/mL (≈ 9.85 mM)
MIC (S. epidermidis; [2]): 1500 µg/mL (≈ 9.85 mM)
Structure (SMILES): CC(C)=CCCC(C)=CC=O [citral]
performance against the bacteria as raw materials [1]: performing well

MIC (C. mucofaciens; [2]): 1090 µg/mL (≈ 3.93 mM)
MIC (S. epidermidis; [2]): 1090 µg/mL (≈ 3.93 mM)
Structure (SMILES): CC/C=C\C/C=C\C/C=C\CCCCCCCC(=O)O [linolenic acid]

microbial inhibition concentration (MIC) (C. mucofaciens; [2]): 2000 ppm
microbial inhibition concentration (MIC) (S. epidermidis; [2]): 1000 ppm
Structure (SMILES): C=CCCCCCCCCC(=O)N[C@@H](Cc1ccccc1)C(=O)O [Sepiwhite]
performance against the bacteria as raw materials [1]: performing well

MIC (C. mucofaciens; [2]): 3120 µg/mL (≈ 11.1 mM)
MIC (S. epidermidis; [2]): 3120 µg/mL (≈ 11.1 mM)
Structure (SMILES): CCCCC/C=C\C/C=C\CCCCCCCC(=O)O [Linoleic acid]

MIC (C. mucofaciens; [2]): 773 µg/mL (≈ 4.71 mM)
MIC (S. epidermidis; [2]): 773 µg/mL (≈ 4.71 mM)
Structure (SMILES): C=CCc1ccc(O)c(OC)c1 [eugenol]
performance against the bacteria as raw materials [1]: performing well

MIC (C. mucofaciens; [2]): 1530 µg/mL
MIC (S. epidermidis; [2]): 3060 µg/mL
Structure (SMILES): COC(=O)CCC(=O)OC [dimethyl succinate]
performance against the bacteria as raw materials [1]: performing well

The next lines start with the compound.

Structure (SMILES): CCCCC(CC)COCC(O)CO (stereo not shown) [Ethylhexyl glycerin]
microbial inhibition concentration (MIC) (C. mucofaciens; [2]): 12500 ppm
microbial inhibition concentration (MIC) (S. epidermidis; [2]): 12500 ppm

Structure (SMILES): N=C(N)c1ccc(OCCCCCCOc2ccc(C(=N)N)cc2)cc1 [hexamidine]
MIC (C. mucofaciens): < 2 µg/mL
MIC (S. epidermidis): 7 µg/mL (≈ 0.0197 mM)

Structure (SMILES): O=C([O-])[O-].[Ca+2] [calcium carbonate]
microbial inhibition concentration (MIC) (C. mucofaciens; [2]): >2500 ppm
performance against the bacteria as raw materials [1]: performing moderately well
microbial inhibition concentration (MIC) (S. epidermidis; [2]): >2500 ppm

Structure (SMILES): [Cl-].[Na+] [NaCl]
microbial inhibition concentration (MIC) (C. mucofaciens; [2]): >25000 ppm
microbial inhibition concentration (MIC) (S. epidermidis; [2]): >25000 ppm

Structure (SMILES): CCCCCCCCCCCCCC(=O)OC(C)C [Isopropyl Myristate]
MIC (C. mucofaciens; [2]): > 59000 µg/mL
MIC (S. epidermidis; [2]): > 59000 µg/mL

Structure (SMILES): [Ca+2].[Cl-].[Cl-] [CaCl]
microbial inhibition concentration (MIC) (C. mucofaciens; [2]): >50000 ppm
microbial inhibition concentration (MIC) (S. epidermidis; [2]): >50000 ppm

Structure (SMILES): CC(C)=CCCC(C)=CCCC(C)=CCO [Farnesol]
MIC (C. mucofaciens; [2]): 47500 µg/mL (≈ 214 mM)
MIC (S. epidermidis; [2]): 5940 µg/mL (≈ 26.7 mM)

Structure (SMILES): CCCCCCCCC(CO)CCCCCC (stereo not shown) [Hexyl Decanol]
microbial inhibition concentration (MIC) (C. mucofaciens; [2]): 6062 ppm
microbial inhibition concentration (MIC) (S. epidermidis; [2]): 3031 ppm
